{"source": "patent US20230270721A1", "about": "“INHIBITION OF BAX-MEDIATED CELL DEATH BY ELTROMBOPAG” (Albert Einstein College of Medicine, priority 2020, published 2023)", "key": {"[1]": {"conditions": "cited from earlier work"}, "[2]": {"system": "BAK-/- mouse embryonic fibroblasts (MEFs)", "assay": "Caspase 3/7 assay, STS-induced apoptosis, MEFs expressing only BAX", "type": "cell-based", "conditions": "3 µM STS, 6 hr", "from_the_text": "(§1) FIGS. 7A, 7B, 7C, 7D, 7E, and 7F are a set of diagrams showing that eltrombopag inhibits BAX translocation and BAX-mediated apoptosis in cells. […] BAX translocation is based on antibody-based detection of BAX and mitochondrial protein TOMM20. Representative confocal micrographs from three independent biological experiments. Scale bar, 20 µm. […] Data represent ±SEM of three independent biological replicates. Two-sided t test, ****P < 0.0001; ***P < 0.001; **P < 0.01; *P < 0.05; ns, P > 0.05. […] Actin and VDAC are loading controls for cytosolic and mitochondrial fractions, respectively. FIGS. 7D and 7E show a caspase 3/7 assay of BAK-/- mouse embryonic fibroblasts (MEFs) (FIG. 7D) and BAX-/-MEFs (FIG. 7E) in response to 3 µM STS and the presence or absence of various doses of EO for 6 hr. […]\n(§2) It is important to note that THPO-receptor agonist activity of EO is highly specific to the human and chimpanzee THPO-receptors, making mouse cell lines ideal for studying EO modulation of BAX-dependent activity independent of THPO-mediated effects (Erickson-Miller, C. L. et al. Stem Cells 27, 424-430 (2009)). First, mitochondrial cytochrome c release, a hallmark of BAX activation and BAX-dependent apoptosis, was evaluated. […] Next, mitochondrial translocation of cytosolic BAX upon treatment with either BIM BH3 or staurosporine (STS) in BAK KO MEFs was evaluated."}, "[3]": {"system": "BAX KO (BAX-/-) MEFs", "assay": "Cytochrome c release assay (ELISA), BAX KO MEFs", "type": "cell-based, mouse", "conditions": "BIM-BH3 peptide", "protocol": "BAX^-/^- or BAK^-/^- mouse embryonic fibroblasts were maintained in DMEM (Life Technologies) supplemented with 10% FBS, 100 U/mL penicillin/streptomycin, 2 mM I-glutamine, and 0.1 mM MEM nonessential amino acids. MEFs (5×10^4 cells/well) were seeded in a 96 well clear u-bottom plate for 18-24 hr. Media was removed and replaced with media lacking FBS, and cells were treated with varying doses of EO for 2 hours at 37° C. […] Cytochrome c release was determined by decanting 50 µL of the supernatant and analyzing with the rat/mouse cytochrome c quantikine ELISA kit (R&D Systems, MCTO) according to the recommended protocol. […]\nas §2"}, "[4]": {"system": "3T3 cells", "assay": "Caspase 3/7 activation assay, ABT-263 + S63845", "type": "cell-based, murine", "conditions": "1 µM ABT-263 and 1 µM S63845, 4 hr", "protocol": "3T3 cells were maintained in media identical to that of MEFs. 3T3 cells were seeded (1×10^4 cells/well) in 96-well opaque plates for 18-24 hr. The media was removed and replaced with media lacking FBS, and cells were treated with EO as a 10X stock in H2O at the indicated doses for 2 hr before addition of 10% FBS. Cells were then treated with 1 µM each of ABT-263 and S63845. Caspase 3/7 activation was measured at 4 hr by addition of the Caspase-Glo 3/7 chemiluminescence reagent in accordance with the manufacturer’s protocol (Promega). Luminescence was detected by an F200 PRO microplate reader (TECAN). Percentage caspase activation was normalized to ABT-263 + S63845 alone (100%) and untreated cells (0%). Viability assays were performed at 24 hr by addition of CellTiter-Glo according to the manufacturer’s protocol (Promega). Luminescence was detected by an F200 PRO microplate reader (TECAN). Percentage viability was normalized to untreated cells (100%).\nNext, whether EO is capable of rescuing cell death in cells expressing both BAX and BAK was determined. 3T3 cells, a murine fibroblast cell line, were treated with a combination of BH3-mimetics navitoclax (ABT-263) and S63845, which only in combination cause significant cytotoxicity in fibroblast cells."}, "[5]": {"system": "BAK KO MEFs", "assay": "Mitochondrial translocation of cytosolic BAX in cells", "type": "cell-based, mouse", "conditions": "BIM BH3 or 2 µM staurosporine (STS); 10 or 20 µM EO", "from_the_text": "as §1, §2"}}}
{"smiles": "CC1=NN(c2ccc(C)c(C)c2)C(=O)/C1=N\\Nc1cccc(-c2cccc(C(=O)O)c2)c1O", "note": "[EO, eltrombopag]", "values": [{"measurement": "time of peak concentration", "setting": "[1]; after oral administration", "result": "2 to 6", "unit": "h"}, {"measurement": "oral bioavailability", "setting": "[1]; in vivo, po", "result": "excellent oral bioavailability"}, {"measurement": "half-life", "setting": "[1]; oral administration", "result": "21 to 32", "unit": "h"}, {"measurement": "STS-induced apoptosis mediated by caspase 3/7 activity", "setting": "[2]", "result": "inhibited STS-induced apoptosis"}, {"measurement": "BIM-BH3 induced release of cytochrome c", "setting": "[3]", "result": "no such effect"}, {"measurement": "apoptosis mediated by caspase 3/7 activity", "setting": "[4]", "result": "significant reduction of apoptosis"}, {"measurement": "mitochondrial translocation of cytosolic BAX", "setting": "[5]", "result": "capable of inhibiting BAX translocation"}]}
